Experimental findings from US4082736A, “Novel immunological adjuvant compounds and methods of preparation thereof” (Syntex (U.S.A.) Inc., priority 1976, dated 1978) are described below.

Assay [1] relates to guinea pig. In words: Delayed hypersensitivity skin test to arsanilic tyrosine after immunisation with antigen mixture plus test compound in FIA. It counts as in vivo. To be noted: s.c. in FIA emulsion, skin test day 14, read at 24 hours, relative to FIA = 1. The procedure:
(§1) The antigen mixture used consists of 20 μg. of arsanilic tyrosine and 100 μg. of protein [either bovine serum albumin (BSA) or ovalbumin]. The antigen mixture and the compounds to be tested, at the dose levels per guinea pig shown in the Table below, are dissolved in saline and emulsified with an equal volume of Freund's Incomplete Adjuvant (FIA). Groups of ten guinea pigs are used for each test compound and each guinea pig is injected with 0.1 ml. of the above emulsion, subcutaneously, in the nuchal region. Control groups are given the antigen mixture alone emulsified with FIA.
After 14 days, all animals are skin tested using 25 μg arsanilic tyrosine conjugated to either BSA or ovalbumin (BSA is used in this test when ovalbumin is present in the antigen mixture and vice versa) which is given in 0.1 ml saline intradermally in the flanks of the animals. The potencies of the test compounds in stimulating the delayed hypersensitivity reaction are then computed by multiplying the average area of the skin reaction at 24 hours by a number from 1 to 3 which is a measure of the amount of infiltration observed in each skin reaction. Thus, the procedure is as follows: skin tests with a high degree of infiltration are scored as ++ and assigned the number 3; those with a lesser degree are scored as + and given the number 2, whereas skin reactions with no infiltration are scored as zero and assigned the number 1. These numbers are then totaled for the animals in a group and the average number obtained is then multiplied by the average area of the observed skin reaction. There is thus included in the potencies the amount of infiltration coupled with the average area observed in the skin test.

The subject of assay [2] is guinea pig. In words: Antibody titre (antibovine serum albumin or antiovalbumin) in sera by passive hemagglutination or Farr radioimmune assay. It counts as in vivo. To be noted: s.c. in FIA emulsion, sera of day 42, relative to FIA = 1. The procedure: as §1
On day 42 all animals are bled by cardiac puncture and the sera assayed for antibovine serum albumin or antiovalbumin antibodies by the passive hemagglutination technique or by radioimmune assay using the Farr technique (P. Minden and R. S. Farr in "Handbook of Experimental Immunology", edited by D. M. Weir, Chapter 15, Volume 1, Blackwell Scientific Publications, Oxford) using ^125 iodine labeled bovine serum albumin. Average potencies of these assays are presented in Column 2 of the Table below relative to FIA having the value of one.

In the case of `CC(=O)N[C@H]1C(O)O[C@H](CO)[C@@H](O)[C@@H]1O[C@H](C)C(=O)N[C@@H](CC(C)C)C(=O)N[C@H](CCC(=O)O)C(N)=O` (stereo partly drawn) [2-(2-acetamido-2-deoxy-D-glucos-3-O-yl)-D-propionyl-L-leucyl-D-isoglutamine], in the assay on guinea pig [1] (dose 50 μg per guinea pig), the “Average Potency, Delayed Hypersensitivity to Arsanilic Tyrosine” value (shortened to “Average Potency … to Arsanilic Tyrosine”) was found to be 7.5. For the same compound, the “Average Potency, Antibody Titre” value in the assay on guinea pig [2] (dose 50 μg per guinea pig) stood at 5.3.
For `CC(=O)N[C@H]1C(O)O[C@H](CO)[C@@H](O)[C@@H]1O[C@H](C)C(=O)N[C@@H](C)C(=O)N[C@H](CCC(=O)O)C(N)=O` (stereo partly drawn) [2-(2-acetamido-2-deoxy-D-glucos-3-O-yl)-D-propionyl-L-alanyl-D-isoglutamine, reference compound], the “Average Potency … to Arsanilic Tyrosine” value in the assay with guinea pig [1] (dose 50 μg per guinea pig) was 3.3. Also, in the assay on guinea pig [2] (dose 50 μg per guinea pig), the “Average Potency, Antibody Titre” value was 3.7.
As to `CC(=O)N[C@H]1C(O)O[C@H](CO)[C@@H](O)[C@@H]1O[C@H](C)C(=O)N[C@@H](Cc1ccccc1)C(=O)N[C@H](CCC(=O)O)C(N)=O` (stereo partly drawn) [2-(2-acetamido-2-deoxy-D-glucos-3-O-yl)-D-propionyl-L-phenylalanyl-D-isoglutamine], the “Average Potency … to Arsanilic Tyrosine” value with guinea pig [1] (dose 50 μg per guinea pig) is recorded as 7.2. In addition, the “Average Potency, Antibody Titre” value with guinea pig [2] (dose 50 μg per guinea pig) was found to be 7.1.
As to `CC(=O)N[C@H]1C(O)O[C@H](CO)[C@@H](O)[C@@H]1O[C@H](C)C(=O)N[C@@H](CCCCN)C(=O)N[C@H](CCC(=O)O)C(N)=O` (stereo partly drawn) [2-(2-acetamido-2-deoxy-D-glucos-3-O-yl)-D-propionyl-L-lysyl-D-isoglutamine], the “Average Potency … to Arsanilic Tyrosine” value in the assay on guinea pig [1] (dose 20 μg per guinea pig) came to 0.9. Moreover, the “Average Potency, Antibody Titre” value in the assay with guinea pig [2] (dose 20 μg per guinea pig) is listed as 1.2.
As for `CC(=O)N[C@H]1C(O)O[C@H](CO)[C@@H](O)[C@@H]1O[C@H](C)C(=O)N[C@@H](Cc1ccc(O)cc1)C(=O)N[C@H](CCC(=O)O)C(N)=O` (stereo partly drawn) [2-(2-acetamido-2-deoxy-D-glucos-3-O-yl)-D-propionyl-L-tyrosyl-D-isoglutamine], in the assay on guinea pig [1] (dose 20 μg per guinea pig), the “Average Potency … to Arsanilic Tyrosine” value came to 6.5. The “Average Potency, Antibody Titre” value with guinea pig [2] (dose 20 μg per guinea pig) worked out at 2.3.
As for `CC(=O)N[C@H]1C(O)O[C@H](CO)[C@@H](O)[C@@H]1O[C@H](C)C(=O)N[C@H](C(=O)N[C@H](CCC(=O)O)C(N)=O)C(C)C` (stereo partly drawn) [2-(2-acetamido-2-deoxy-D-glucos-3-O-yl)-D-propionyl-L-valyl-D-isoglutamine], the “Average Potency … to Arsanilic Tyrosine” value with guinea pig [1] (dose 50 μg per guinea pig) was determined as 7.1. Also, in the assay on guinea pig [2] (dose 50 μg per guinea pig), the “Average Potency, Antibody Titre” value is given as 4.0.
Consider `CC(=O)N[C@H]1C(O)O[C@H](CO)[C@@H](O)[C@@H]1O[C@H](C)C(=O)N1CCC[C@H]1C(=O)N[C@H](CCC(=O)O)C(N)=O` (stereo partly drawn) [2-(2-acetamido-2-deoxy-D-glucos-3-O-yl)-D-propionyl-L-prolyl-D-isoglutamine], for which, in the assay on guinea pig [1] (dose 50 μg per guinea pig), the “Average Potency … to Arsanilic Tyrosine” value is 6.6. The “Average Potency, Antibody Titre” value with guinea pig [2] (dose 50 μg per guinea pig) stood at 7.0.
